Test results taken from ChEMBL document CHEMBL1201862, “PubChem BioAssay data set” (2004).
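Results reflect a 48-hour exposure of cells in 96-well plates to compound at five concentrations. GI50: concentration for 50% inhibition of growth.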 Activity calls are given as the source filed them. Cut-off read from the data, not from the text of the source: active = GI50 up to about 1.1 µM and inactive = higher.

Experiments:
Experiment in all cases: NCI tumour cell line growth inhibition, 48 h
[1] = system: SF-268
[2] = system: SF-295
[3] = system: EKVX
[4] = system: Malme-3M
[5] = system: HCT-116
[6] = system: MDA-MB-231
[7] = system: 786-0
[8] = system: MDA-MB-435
[9] = system: HOP-62
[10] = system: SK-OV-3
[11] = system: HCT-15
[12] = system: RXF 393
[13] = system: NCI-H23
[14] = system: SW-620
[15] = system: NCI-H226
[16] = system: HL-60
[17] = system: DU-145
[18] = system: RPMI-8226
[19] = system: MCF7
[20] = system: SNB-19

Row | SMILES | GI50 [1] | GI50 [2] | GI50 [3] | GI50 [4] | GI50 [5] | GI50 [6] | GI50 [7] | GI50 [8] | GI50 [9] | GI50 [10] | GI50 [11] [µM] | GI50 [12] | GI50 [13] | GI50 [14] | GI50 [15] | GI50 [16] | GI50 [17] | GI50 [18] | GI50 [19] | GI50 [20]
1 | CCCCNc1c(CN)cnc2cc(Cl)ccc12 | 23.6 µM (inactive) | 14 µM (inactive) | 3.79 µM (inactive) | 19.2 µM (inactive) | 15 µM (inactive) | 15.3 µM (inactive) | 16.7 µM (inactive) | 15.6 µM (inactive) | 14.1 µM (inactive) | 14.3 µM (inactive) | 17.1 | 14.5 µM (inactive) | 19.3 µM (inactive) | 16.3 µM (inactive) | 16.1 µM (inactive) | 0.394 µM (active) | 28.1 µM (inactive) | 16.4 µM (inactive) | 14.5 µM (inactive) | 22.9 µM (inactive)
2 | O=c1[nH]c(=O)n(COCCO)c2ccsc12 | > 100 µM (inactive) | > 100 µM (inactive) | > 100 µM (inactive) | > 100 µM (inactive) | > 100 µM (inactive) | > 100 µM (inactive) | > 100 µM (inactive) | > 100 µM (inactive) | > 100 µM (inactive) |  | > 100 | > 100 µM (inactive) | > 100 µM (inactive) | > 100 µM (inactive) | > 100 µM (inactive) | > 100 µM (inactive) | > 100 µM (inactive) | > 100 µM (inactive) | > 100 µM (inactive) | 32.4 µM (inactive)
3 | COc1ccc(C#Cn2nnc3ccccc32)cc1 | 91.2 µM (inactive) | > 100 µM (inactive) | 32.8 µM (inactive) | > 100 µM (inactive) | > 100 µM (inactive) | > 100 µM (inactive) | > 100 µM (inactive) | > 100 µM (inactive) | > 100 µM (inactive) |  | > 100 | 97.7 µM (inactive) | > 100 µM (inactive) | > 100 µM (inactive) | 64.7 µM (inactive) | 21.6 µM (inactive) | 41 µM (inactive) | 26.1 µM (inactive) | 41.8 µM (inactive) | > 100 µM (inactive)
4 | COC1CC(OC2OC(CO)C(O)C(O)C2O)/C(=C\C#N)C(O)C1OC (configuration not stated) | > 100 µM (inactive) | > 100 µM (inactive) | > 100 µM (inactive) | > 100 µM (inactive) | > 100 µM (inactive) | > 100 µM (inactive) | > 100 µM (inactive) | > 100 µM (inactive) | > 100 µM (inactive) | > 100 µM (inactive) | > 100 | > 100 µM (inactive) | > 100 µM (inactive) | > 100 µM (inactive) | > 100 µM (inactive) | > 100 µM (inactive) | > 100 µM (inactive) | > 100 µM (inactive) | > 100 µM (inactive) | > 100 µM (inactive)
5 | N=C(CSS(=O)(=O)O)NC1CC2CCC1C2 (configuration not stated) | > 100 µM (inactive) | 76.7 µM (inactive) |  | > 100 µM (inactive) | > 100 µM (inactive) | > 100 µM (inactive) | > 100 µM (inactive) | 95.5 µM (inactive) | 95.7 µM (inactive) | > 100 µM (inactive) | > 100 | > 100 µM (inactive) | > 100 µM (inactive) | > 100 µM (inactive) | > 100 µM (inactive) | > 100 µM (inactive) | > 100 µM (inactive) | > 100 µM (inactive) | > 100 µM (inactive) | > 100 µM (inactive)
6 | CCOc1cn(C2CC(O)C(CO)O2)c(=O)[nH]c1=O (configuration not stated) | > 100 µM (inactive) |  | > 100 µM (inactive) | > 100 µM (inactive) | > 100 µM (inactive) | > 100 µM (inactive) | > 100 µM (inactive) | > 100 µM (inactive) | > 100 µM (inactive) | > 100 µM (inactive) | > 100 | > 100 µM (inactive) | > 100 µM (inactive) | > 100 µM (inactive) | > 100 µM (inactive) | > 100 µM (inactive) | > 100 µM (inactive) | > 100 µM (inactive) | 45.9 µM (inactive) | > 100 µM (inactive)
7 | O=C1CCC2(CC1CC[S+]([O-])c1ccccc1)OCCO2 (configuration not stated) | > 100 µM (inactive) | > 100 µM (inactive) | > 100 µM (inactive) | > 100 µM (inactive) |  | > 100 µM (inactive) | > 100 µM (inactive) | > 100 µM (inactive) | > 100 µM (inactive) | > 100 µM (inactive) | > 100 | > 100 µM (inactive) | > 100 µM (inactive) | > 100 µM (inactive) | > 100 µM (inactive) | 89.7 µM (inactive) | > 100 µM (inactive) | > 100 µM (inactive) | > 100 µM (inactive) | > 100 µM (inactive)
8 | CCN(CCCl)c1cc(CN(C)C)cc(NC(=O)c2ccc(C(=O)Nc3ccccc3)cc2)c1 | 0.337 µM (active) | 0.348 µM (active) |  | 0.191 µM (active) | 0.424 µM (active) | 1.3 µM (inactive) | 0.21 µM (active) | 0.239 µM (active) | 0.314 µM (active) | 0.971 µM (active) | 1.7 | 0.152 µM (active) | 0.27 µM (active) | 0.15 µM (active) | 1.53 µM (inactive) | 0.193 µM (active) | 0.415 µM (active) | 0.307 µM (active) | 0.232 µM (active) | 0.676 µM (active)
9 | COCC(/N=C\N1CCCc2ccccc2[C@@H]1CCCCl)C(C)(C)C (some centres not stated) | > 100 µM (inactive) | 17.2 µM (inactive) | 17.5 µM (inactive) | 0.332 µM (active) | 1.23 µM (inactive) | 3.49 µM (inactive) | 7.96 µM (inactive) | 11.7 µM (inactive) | 15.3 µM (inactive) | 14.6 µM (inactive) | 41.9 | 13.1 µM (inactive) | 0.421 µM (active) | 13 µM (inactive) | 5.28 µM (inactive) | 0.619 µM (active) | > 100 µM (inactive) | 2.67 µM (inactive) | 0.351 µM (active) | 18.7 µM (inactive)
10 | CO[C@@H]1[C@H](OC(=O)NC(=O)CCl)CC[C@]2(CO2)[C@H]1[C@@]1(C)O[C@@H]1CC=C(C)C [O-CHLOROACETYLCARBAMOYLFUMAGILLOL] | 13.6 µM (inactive) | 5.65 µM (inactive) | 14.1 µM (inactive) | 5.97 µM (inactive) |  | 15.9 µM (inactive) | 12.6 µM (inactive) | 11.7 µM (inactive) | 12.9 µM (inactive) | 15.3 µM (inactive) | 14.1 | 8.36 µM (inactive) | 15.8 µM (inactive) | 9.53 µM (inactive) | 19 µM (inactive) | 2.54 µM (inactive) | 12.2 µM (inactive) | 6.93 µM (inactive) | 12.4 µM (inactive) | 12 µM (inactive)
11 | O=C([O-])C(O)C(O)C(=O)O.[K+] (configuration not stated) [POTASSIUM HYDROGENTARTRATE] | > 100 µM (inactive) | > 100 µM (inactive) | > 100 µM (inactive) | > 100 µM (inactive) | > 100 µM (inactive) | > 100 µM (inactive) | > 100 µM (inactive) | > 100 µM (inactive) | > 100 µM (inactive) | > 100 µM (inactive) | > 100 | > 100 µM (inactive) |  | > 100 µM (inactive) | > 100 µM (inactive) | > 100 µM (inactive) | > 100 µM (inactive) | > 100 µM (inactive) | > 100 µM (inactive) | > 100 µM (inactive)
